Reference: US10590373B2, “Systems and methods for biomimetic fluid processing” (BRIGHAM AND WOMEN'S HOSPITAL, INC., priority 2014, dated 2020)

System: mouse fetal liver culture-derived (mFLC) MKs
Test: shear-induced proPLT production and PLT release by MKs in the microfluidic device after drug incubation
Format: cell-based
Conditions: for PLT release: under both static and physiological shear conditions; for shear-induced proPLT production: physiological shear
Protocol: Devices were coated with a 0.22 μm filtered 10% BSA solution (Millipore, Billerica, Mass.) for 30 minutes to prevent direct cell contact with glass. Referring to FIG. 1, primary MKs and media were infused in the first inlet 118 and second inlet 122, respectively, at a rate of 12.5 μL/hour using a two-syringe microfluidic pump (Harvard Apparatus, Holliston, Mass.). When the first outlet 120 was closed, both input solutions were redirected toward the second outlet 124 causing primary MKs to trap.
For shear cultures, MKs were loaded onto ‘naked’ microfluidic devices (only BSA-coated), and the infusion rate was doubled incrementally from 12.5 μL/hr to 200 μL/hr over a 2 hour period. For static cultures, isolated MKs were pipetted into chambers formed by mounting a glass coverslide coated with 3% BSA onto a […] with a 1 cm hole and cultured for 24 hours. Both static and shear cultures were maintained at 37 degrees C. and 5 percent CO2 and examined on a Zeiss Axiovert 200 (Carl Zeiss, Thornwood, N.Y.) equipped with 10× (numerical aperature, 0.30) Plan-Neofluar air objective. Differential interference contrast (DIC) images were obtained using CCD camera (Hamamatsu Photonics, Boston, Mass.) at either 2 second (shear cultures) or 20 minute (static cultures) intervals. Images were analyzed using the Metamorph version 7.7.2.0 image analysis software (Molecular Devices, Sunnyvale, Calif., USA) and ImageJ software version 1.47p. ProPLT extension rates were determined manually for over 200 MKs from at least three independent samples. For PLT spreading experiments, effluent was collected from microfluidic devices after 2 hours and pipetted into uncoated static culture chambers, described above. PLTs were permitted to contact glass by gravity sedimentation and spreading was captured at 5 second intervals over a 5 minute period.
In vivo BM MKs extend proPLTs in the direction of blood flow and release PLTs, proPLTs, large cytoplasmic fragments (prePLTs), and even whole MKs into sinusoidal blood vessels which may be trapping in the pulmonary microvascular bed, or otherwise maturing in the circulation. To determine the effect of physiological shear on PLT production, mouse fetal liver culture-derived (mFLC) MKs were isolated on culture day 4 and characterized by size and ploidy before being infused into the microfluidic device (shown in FIG. 3A).
While shear rates were kept constant, proPLT extension rates varied at different positions along the shaft, predictive of a regulated cytoskeletal driven mechanism of proPLT elongation (shown in FIG. 4C). […]

Row | Structure (SMILES) | PLT release (1 mM EHNA) | shear-induced proPLT production (MKs incubated with 1 mM EHNA prior to infusion in microfluidic device) | PLT release (5 μM Jas) | shear-induced proPLT production (MKs incubated with 5 μM Jas prior to infusion in microfluidic device)
1 | CCCCCC[C@@H]([C@@H](C)O)n1cnc2c(N)ncnc21 (racemic) [EHNA] | inhibited | inhibit |  | 
2 | C/C1=C\[C@H](C)C[C@H](C)OC(=O)C[C@H](c2ccc(O)cc2)NC(=O)[C@@H](Cc2c(Br)[nH]c3ccccc23)N(C)C(=O)[C@H](C)NC(=O)[C@@H](C)C1 [Jas, Jasplankinolide] |  |  | inhibited | inhibit
